From patent publication US12103915B2, “TEAD inhibitors and methods of uses thereof” (Insilico Medicine IP Limited, priority 2022, dated 2024)
pIC50: −log10 of the molar value. Like-named read-outs stand apart in the source and are kept apart here.

How the values were obtained:
[1] = molecular target: TEAD4 (Homo sapiens, UniProt Q15561); experiment: Thermal shift assay TEAD4; type: binding
Outline: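 Protein thermal shift with TEAD4 at 0.1 mg/ml final, Protein Thermal Shift dye, compounds at 10 μM or 1 μM in PBS with 0.1% DMSO final. Melt reactions assembled on ice and run on a qPCR instrument.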

[2] = system: NCI-H226 cells; experiment: Cell growth assay (CellTiter-Glo); type: cell-based, human; details: 7 days treatment, CellTiter-Glo luminescence, read-out: H226 CTG IC50
Protocol: Example A: Cell Growth Assay
CellTiter-Glo reagent (CTG reagent, Promega, G7573).
[…] Also seeding an extra plate as Day 0 control measurement. The microplates were incubated at 37° C., 5% CO2 overnight.
Compounds were 3-fold serial diluted in DMSO and final top-concentration was […], 10 points. 0.3% DMSO as vehicle control. In addition, […] of CTG reagent was added into the extra plate and incubated at room temperature for 30 minutes and detected luminescence signals as Day 0 control by using EnVision (PerkinElmer, 2104 Mutilabel Reader).
Incubated other compounds treated plates at 37° C. for another 7 days and […] of CTG reagent was added into the plates and incubated at room temperature for 30 minutes and detected luminescence signals.
Day 0 luminescence signals were used as negative control or baseline. • Signalday0=average luminescence signals of Day 0 control cells. • Signalblank control=average luminescence signals of blank control. • SignalDMSO vehicle control=average luminescence signals of Day 7 DMSO vehicle control cells. • Signalcpds treatment=luminescence signals of Day 7 compounds treatment cells. Inhibition %=1−(Signalcpds treatment−Signalblank control)/(SignalDMSO vehicle control−Signalblank control)*100.
(Inhibitory concentration 50% (IC50) and maximum inhibition % were calculated using dose response curves.

[3] = molecular target: TEAD3 (Homo sapiens, UniProt Q99594); experiment: Thermal shift assay TEAD3; type: binding
Sequence of TEAD3 (Q99594 whole entry, species assumed): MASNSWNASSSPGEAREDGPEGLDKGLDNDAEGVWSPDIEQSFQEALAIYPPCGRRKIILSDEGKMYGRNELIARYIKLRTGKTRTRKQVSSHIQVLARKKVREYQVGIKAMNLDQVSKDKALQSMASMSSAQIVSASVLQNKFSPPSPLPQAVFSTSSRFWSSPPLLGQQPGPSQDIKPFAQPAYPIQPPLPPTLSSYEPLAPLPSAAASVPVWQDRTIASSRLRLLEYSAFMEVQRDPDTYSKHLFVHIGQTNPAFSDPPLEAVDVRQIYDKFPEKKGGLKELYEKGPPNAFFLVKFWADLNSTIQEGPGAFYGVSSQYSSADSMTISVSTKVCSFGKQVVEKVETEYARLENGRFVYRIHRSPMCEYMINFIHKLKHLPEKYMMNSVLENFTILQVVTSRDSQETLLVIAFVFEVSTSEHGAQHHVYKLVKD
Outline: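 TEAD3 protein at 0.1 mg/ml final melted with Protein Thermal Shift dye on a qPCR instrument. Compounds tested at 10 μM and 1 μM in PBS, final DMSO 0.1%.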

[4] = molecular target: TEAD2 (Homo sapiens, UniProt Q15562); experiment: Thermal shift assay TEAD2; type: binding
Sequence of TEAD2 (Q15562 whole entry, species assumed): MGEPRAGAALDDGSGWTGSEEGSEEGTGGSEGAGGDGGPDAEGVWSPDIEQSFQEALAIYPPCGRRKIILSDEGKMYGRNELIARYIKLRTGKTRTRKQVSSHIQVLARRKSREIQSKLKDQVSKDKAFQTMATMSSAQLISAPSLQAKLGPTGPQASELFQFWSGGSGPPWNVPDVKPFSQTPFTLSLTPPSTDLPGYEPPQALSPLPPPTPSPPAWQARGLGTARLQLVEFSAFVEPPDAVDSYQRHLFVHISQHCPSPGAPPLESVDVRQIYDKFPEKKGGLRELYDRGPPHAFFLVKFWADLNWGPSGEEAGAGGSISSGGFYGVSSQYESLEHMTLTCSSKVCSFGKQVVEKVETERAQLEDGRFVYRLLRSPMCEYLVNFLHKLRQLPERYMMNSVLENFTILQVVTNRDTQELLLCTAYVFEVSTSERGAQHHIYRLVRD
Outline: (§1)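 Compounds tested at 10 μM and 1 μM, 0.1% DMSO final, with TEAD1 at 0.2 mg/ml or TEAD2 at 0.08 mg/ml final. Melting monitored with Protein Thermal Shift dye on a qPCR instrument.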

[5] = molecular target: TEAD1 (Homo sapiens, UniProt P28347); experiment: Thermal shift assay TEAD1; type: binding
Sequence of TEAD1 (P28347 whole entry, species assumed): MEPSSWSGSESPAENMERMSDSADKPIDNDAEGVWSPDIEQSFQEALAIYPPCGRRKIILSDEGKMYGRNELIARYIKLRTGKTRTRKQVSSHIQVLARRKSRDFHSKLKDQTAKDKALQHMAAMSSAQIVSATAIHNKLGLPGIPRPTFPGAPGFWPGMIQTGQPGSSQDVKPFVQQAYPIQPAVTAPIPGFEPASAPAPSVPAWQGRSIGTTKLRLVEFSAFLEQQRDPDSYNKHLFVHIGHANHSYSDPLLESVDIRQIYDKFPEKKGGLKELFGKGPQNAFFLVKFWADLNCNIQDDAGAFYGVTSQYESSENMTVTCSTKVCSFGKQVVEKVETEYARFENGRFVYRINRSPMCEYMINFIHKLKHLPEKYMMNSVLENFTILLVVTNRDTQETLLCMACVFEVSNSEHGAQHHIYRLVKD
Outline: as §1

Sequence of TEAD4 (Q15561 whole entry, species assumed): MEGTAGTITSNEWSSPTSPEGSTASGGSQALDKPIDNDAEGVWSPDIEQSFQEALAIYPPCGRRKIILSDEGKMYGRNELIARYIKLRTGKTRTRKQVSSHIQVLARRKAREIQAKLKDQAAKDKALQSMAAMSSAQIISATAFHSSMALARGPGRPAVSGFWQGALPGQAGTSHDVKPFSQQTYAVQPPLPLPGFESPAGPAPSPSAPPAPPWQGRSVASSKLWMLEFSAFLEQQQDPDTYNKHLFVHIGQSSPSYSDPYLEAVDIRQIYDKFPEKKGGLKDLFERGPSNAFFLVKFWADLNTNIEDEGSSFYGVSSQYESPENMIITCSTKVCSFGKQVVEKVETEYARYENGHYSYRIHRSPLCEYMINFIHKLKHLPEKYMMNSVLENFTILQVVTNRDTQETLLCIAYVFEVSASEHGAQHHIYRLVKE

| SMILES | TEAD4 ΔTm [1] [°C] | pIC50 ([2]; Homo sapiens, NCI-H226, 168 h) | TEAD3 ΔTm [3] [°C] | TEAD2 ΔTm [4] [°C] | TEAD1 ΔTm [5] [°C] | pIC50 [2] |
| --- | --- | --- | --- | --- | --- | --- |
| Cn1cc2cc(Oc3ccc(Cl)cc3)cc([C@@H]3C[C@H]3C(=O)N3C[C@@H]4C[C@H]3C[C@@H]4O)c2n1 (single isomer, unassigned) [Example 139] | 7.6 | > 7.00 | 2.8 | 9.2 | 5.5 |  |
| Cn1ncc2c(C3C[C@H]3C(N)=O)cc(-c3ccc(C(F)(F)F)cc3)cc21 (mixture of isomers) [Example 25] | 6.6 | > 7.00 | 0.7 | 6.9 | 5.4 |  |
| CNC(=O)[C@@H]1CC1c1cc(Oc2ccc(C(F)(F)F)cc2)cc2cn(C(F)F)nc12 (mixture of isomers) [Example 79] | 7.7 | 6.30 to 7.00 | 1.0 | 12.3 | 8.1 |  |
| Cn1cc2cc(Oc3ccc(C(F)(F)F)cc3)cc(C3C[C@H]3C(=O)N3CCC(O)CC3)c2n1 (single isomer, unassigned) [Example 74] | 10.2 | > 7.00 | 11.4 | 12.9 | 10.7 |  |
| Cn1cc2cc(Oc3ccc(C(F)(F)F)cc3)cc([C@@H]3C[C@H]3C(=O)N[C@@H](CO)c3ccccn3)c2n1 (single isomer, unassigned) [Example 59b] | 15.6 | 6.30 to 7.00 | 13.1 | 11.3 | 9.4 |  |
| Cn1ncc2c(C3C[C@H]3C(=O)O)cc(-c3ccc(C(F)(F)F)cc3)cc21 (mixture of isomers) [Example 7] | 7.2 |  | 2 | 5.7 | 5.7 | 6.30 to 7.00 |
| Cn1cc2cc(Oc3ccc(C(F)(F)F)cc3)cc([C@@H]3C[C@H]3C(=O)NCCO)c2n1 (single isomer, unassigned) [Example 125] | 9.6 | > 7.00 | 9.3 | 11.9 | 9.1 |  |
| [2H]C([2H])([2H])NC(=O)[C@@H]1C[C@H]1c1cc(Oc2ccc(C(F)(F)F)cc2)cc2cn(C)nc12 (single isomer, unassigned) [Example 52] | 4.3 | 4.52 to 6.00 | −0.5 | 9.8 | 4.7 |  |
| Cn1cc2cc(Oc3ccc(C(F)(F)F)cc3)cc([C@@H]3C[C@H]3C(=O)N3CC4CC3C(=O)N4)c2n1 (single isomer, unassigned) [Example 121] | 8.9 | > 7.00 | 2.0 | 10.6 | 7.9 |  |
| Cn1cc2cc(Oc3ccc(C(F)(F)F)cc3)cc([C@@H]3C[C@H]3C(=O)N3CC(C#N)C3)c2n1 (single isomer, unassigned) [Example 70] | 8.6 | > 7.00 | 7.0 | 11.7 | 8.4 |  |
| CNC(=O)[C@@H]1CC1c1cc(Oc2ccc(C(F)(F)F)cc2)cc2cccnc12 (mixture of isomers) [Example 80] | 6.2 | 6.30 to 7.00 | 5.1 | 10.5 | 6.0 |  |
| Cn1cc2cc(Oc3ccc(C(F)(F)F)cc3)cc([C@@H]3C[C@H]3C(=O)NC3(C#N)CC3)c2n1 (single isomer, unassigned) [Example 67] | 7.9 | > 7.00 | 1.7 | 9.9 | 8.8 |  |
